Marks after values point to notes of the source that are not given here.
Key:
TMPRSS2 [1] = test: Rat plasma serum ELISA, TMPRSS2; assay type: in vivo; conditions: exercised rats, FIG. 5D
ACE-1 = test: Rat plasma serum ELISA, ACE-1; assay type: in vivo; conditions: exercised rats, FIG. 5A
Calu-3 cells = assay type: cell-based, human; conditions: Calu-3, 50 uM to 10 mM, 24 h, 48 h or 72 h
Protocol: Calu-3 cells were maintained in 50% DMEM (Dulbecco’s Modified Eagle Medium) + 50% Ham’s F12 media supplemented with 10% FBS (fetal bovine serum) and 1% penicillin/streptomycin. Vero E6 cells were maintained in DMEM media supplemented with 10% FBS and 1% penicillin/streptomycin.
Calu-3 seeded in a 96-well plate (30,000 cells) were stimulated with 50 uM, 100 uM, 250 uM, 500 uM, 1 mM and 10 mM Carnitine alone. At 24 h, 48 h or 72 h post stimulation, media was removed and cells were subjected to a standard MTT assay.

ACE-2 = test: Rat plasma serum ELISA, ACE-2; assay type: in vivo; conditions: exercised rats, FIG. 5B
TMPRSS2 [2] = test: Human study, serum ELISA, TMPRSS2; assay type: in vivo; conditions: 2 g daily, 5 weeks, 48 hours after exercise challenge, versus placebo
Protocol: (§1) A human study was run with a total of 80 healthy male and female subjects ranging from 21 to 65 years of age, who were active (i.e. 30 minutes per day of moderate activity, 3 days per week) are randomized into two groups. […] Seventy-three subjects completed the trial and biomarker data were analyzed from the sera of the 73 completers. Sera were collected for analysis of C-Reactive Protein (CRP), ACE 1, ACE 2, TMPRSS 2, the Tumor Necrosis Factor alpha (TNF-alpha), and Furin at baseline in the beginning of the trial, at week 5 and 48 hr after an exercise challenge as described (Clinicaltrials.gov NCT04420377). The exercise challenge serves as surrogate to the inflammation stimulus.
(§2) To obtain human sera, venous blood was extracted by venipuncture of the antecubital vein using a 21-gauge syringe and collected into a 10 mL EDTA vacutainer tube (BD Vacutainer®, Becton, Dickinson and Company, Franklin Lakes, NJ) by a certified phlebotomist. […] Human ACE-1, ACE-2, TMPRSS2, Furin, CRP and TNF-alpha protein levels were assessed using commercially available ELISA kits, according the manufacturer recommendations, ACE-1 (R&D systems Inc., Minneapolis, MN, USA), ACE-2 (RayBiotech inc., Peachtree Corners, GA), TMPRSS2 (Novus Biologicals, Littleton, CO), CRP (R&D Systems Inc., Minneapolis, MN), TNF-alpha (Novus Biologicals, Littleton, CO), and Furin (Sigma Aldrich, St. Louis, MO). […]

TNF-alpha = test: Human study, serum ELISA, TNF-alpha; assay type: in vivo
Protocol: as §1, §2

glutathione peroxidase = test: Antioxidant capacity: glutathione peroxidase in exercised rats; assay type: in vivo, rat; conditions: 6 weeks
Protocol: Fifty-six (56) Male Wistar rats that were 8-week old were obtained. The rats were reared at the temperature of 22 ± 2° C., the humidity of 55 ± 5%, and with a 12-hrs light-12-hrs dark cycle. All procedures involving rats were conducted in strict compliance with the relevant laws, the Animal Welfare Act, Public Health Services Policy, and guidelines established by the Institutional Animal Care and Use Committee of the Institute of the contracted University which completed the study.
After a week of the adaptation period, the rats were divided into eight equal groups containing seven rats each. The initial body weights of the rats were similar in all the groups (214.53 grams ± 4.67; P > 0.05).
Groups 1 and 2 were not subjected to an exercise routine. Groups 3-8 were subjected to an exercise regimen consisting of a week training period with an incremental exercise capacity described below. After the week training period the exercise regimen followed was each rat in Groups 3-8 were subjected to 6 weeks of running at 25 m/min during 45 min […]. […] These correspond to 0, 250, 500, 1000, 2000 and 4000 mg per day for humans, respectively.
The exercised rats were subjected to treadmill exercise on a motorized rodent treadmill (Commat Limited, Ankara, Turkey). The treadmill contained a stimulus grid at the back end of the treadmill giving an electric shock when the animal placed its paw on the grid. […] To eliminate the diurnal variations, all exercise tests were applied during the same time of the day. The week of training period was provided as pre-training practice for the animals to get familiar with the treadmill equipment and handling. In doing so, the rats in the exercise training groups were accustomed by treadmill exercise over 5 days such that: (i) 1st day, 10 m/min for 10 min, (ii) 2nd day, 20 m/min for 10 min, (iii) 3rd day, 25 m/min for 10 min, (iv) 4th day, 25 m/min for 20 min and (v) 5th day, 25 m/min for 30 min. After the training period, the rats in treadmill exercise groups ran on the treadmill 25 m/min for 45 min/ per day and five days per week for 6 weeks according to the protocol described by Sahin et al. Capsaicinoids Improve the Consequences of Physical Activity. Toxicol Rep. 2018;5:598-607, which is hereby incorporated by reference.
The exercise regimen was used to induce an inflammation and oxidative stress conditions. […] The results of malondialdehyde, superoxide dismutase, catalase, and glutathione peroxidase for each rat group are shown in TABLE 2.

For `C[N+](C)(C)C[C@H](O)CC(=O)[O-]` [L-carnitine], the “serum TMPRSS2” value (TMPRSS2 [1]) was “controlling TMPRSS2”, the “serum ACE-1” value (ACE-1) was “near normal levels” and the “cytotoxicity (MTT)” value (Calu-3 cells) was “did not show any cytotoxic properties”. For the same compound, the “serum ACE-2” value (ACE-2) was “reduction”, the TMPRSS2 serum levels (TMPRSS2 [2]) was “significant decrease” and the TNF-alpha levels (TNF-alpha; human serum, any time point, b137) was “No change occurred”. The TNF-α (TNF-alpha; human, group A, Wk5 compared to BL, p<0.01) was “lower”, the GSHPx (glutathione peroxidase; Car200: 200 mg/kg oral gavage, no exercise) was 48.74±1.11^d U/mg protein and the GSHPx (glutathione peroxidase; Ex+Car25: exercise, 25 mg/kg oral gavage) was 49.75±1.08^d U/mg protein. The GSHPx (glutathione peroxidase; Ex+Car50: exercise, 50 mg/kg oral gavage) was 55.91±0.85^c U/mg protein, the GSHPx (glutathione peroxidase; Ex+Car100: exercise, 100 mg/kg oral gavage) was 59.57±0.68^bc U/mg protein and the GSHPx (glutathione peroxidase; Ex+Car200: exercise, 200 mg/kg oral gavage) was 62.58+1.03^b U/mg protein. The GSHPx (glutathione peroxidase; Ex+Car400: exercise, 400 mg/kg oral gavage) was 69.06±1.53^a U/mg protein.
